Laboratory results reported in publication PMC12091851, “Replacing a Cereblon Ligand by a DDB1 and CUL4 Associated Factor 11 (DCAF11) Recruiter Converts a Selective Histone Deacetylase 6 PROTAC into a Pan‐Degrader” (Chemmedchem, 2025).

Biological target: T1, HDAC6 (Homo sapiens, UniProt Q9UBN7)
T1 sequence (Q9UBN7 1-1215): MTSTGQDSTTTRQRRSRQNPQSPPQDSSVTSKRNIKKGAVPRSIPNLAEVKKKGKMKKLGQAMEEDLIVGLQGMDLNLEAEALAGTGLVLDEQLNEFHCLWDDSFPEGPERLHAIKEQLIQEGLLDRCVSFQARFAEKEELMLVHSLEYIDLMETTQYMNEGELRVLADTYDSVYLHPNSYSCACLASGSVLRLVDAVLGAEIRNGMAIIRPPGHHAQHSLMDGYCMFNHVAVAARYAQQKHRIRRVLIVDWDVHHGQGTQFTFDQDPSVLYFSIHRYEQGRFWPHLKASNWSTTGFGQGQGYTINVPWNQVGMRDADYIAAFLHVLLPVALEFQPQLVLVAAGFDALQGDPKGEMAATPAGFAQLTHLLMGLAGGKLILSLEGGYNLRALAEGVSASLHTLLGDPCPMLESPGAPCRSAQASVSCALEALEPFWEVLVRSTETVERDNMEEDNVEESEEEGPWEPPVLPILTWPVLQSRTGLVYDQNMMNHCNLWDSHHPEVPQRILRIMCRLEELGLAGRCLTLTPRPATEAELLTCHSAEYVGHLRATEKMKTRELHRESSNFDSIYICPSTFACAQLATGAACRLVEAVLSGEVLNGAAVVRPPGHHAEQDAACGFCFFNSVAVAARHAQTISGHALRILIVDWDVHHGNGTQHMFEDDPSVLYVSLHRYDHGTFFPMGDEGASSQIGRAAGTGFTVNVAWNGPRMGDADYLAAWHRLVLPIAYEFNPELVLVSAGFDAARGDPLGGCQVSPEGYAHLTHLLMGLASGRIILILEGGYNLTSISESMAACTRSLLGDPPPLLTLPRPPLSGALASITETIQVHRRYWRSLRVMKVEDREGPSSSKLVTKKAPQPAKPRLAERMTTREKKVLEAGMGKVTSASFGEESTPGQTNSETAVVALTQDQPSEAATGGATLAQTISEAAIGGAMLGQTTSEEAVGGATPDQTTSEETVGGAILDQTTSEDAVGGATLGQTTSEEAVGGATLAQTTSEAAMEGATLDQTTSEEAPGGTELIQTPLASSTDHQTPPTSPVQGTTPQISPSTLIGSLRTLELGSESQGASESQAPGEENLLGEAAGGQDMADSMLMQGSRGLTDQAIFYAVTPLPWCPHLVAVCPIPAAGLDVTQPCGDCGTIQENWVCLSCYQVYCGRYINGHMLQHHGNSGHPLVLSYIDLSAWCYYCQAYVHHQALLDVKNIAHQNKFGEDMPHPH
Assay: Simple Western immunoassay, HDAC6 levels in U-87MG cell lysates
Type: cell-based
Set-up: endogenous in cells; host or cells: MM.1S
Settings: 10 μM, 24 h
Description: Figure S5. Analysis of HDAC1 and 6 degradation in U-87MG cells. Simple western immunoassay analysis of U-87MG cell lysates. The cells were treated with the indicated compound (10 µM) or vehicle (DMSO) for 24 h. Top: Quantification of HDAC levels, presented as mean ± standard deviation of n = 2 biological replicates; Significance compared to vehicle: ns = p≥0.05 and *** = p≤0.001. Bottom:
Representative images of n = 2 biological replicates.
(1 picture or pasted object on this page, not shown here)
2. Biological Experiments
No unexpected or unusually high safety hazards were encountered.
The human multiple myeloma cell line MM.1S (CRL-2974) was obtained from American Type Culture Collection (ATCC, Manassas, VA, USA). […]
Louis, MO, USA) according to manufacturer´s instructions. Protein content was determined by Pierce™ BCA Protein Assay Kit (Catalog# 23225, Thermo Fisher Scientific Inc.) according to manufacturer´s guidelines. […]
Fluorescence Separation 8x25 Capillary Cartridges (Catalog# SM-FL004-1, Protein Simple, Bio-Techne, Minneapolis, MN, USA) were used for separation and the Anti-Mouse Detection Module (Catalog# DM-002, Protein Simple) was used for detection with addition of 20x Anti-Rabbit HRP […]
Conjugate (Catalog# 043-426, Protein Simple) according to manufacturer´s instructions. […] Evaluation and quantification was performed with the compass software (6.2.0, Protein Simple). […]

- HDAC6 degradation in U-87MG cells: significant HDAC1 and 6 degradation
Compound: O=C(CCCCCCNC(=O)c1ccc(NC(=O)CCCCCCCCCCCN(C(=O)CCl)C(C(=O)NCc2ccccc2)c2ccc(Cl)c(Cl)c2)cc1)NO (stereo not shown) [Compound 1j]
